Patent publication USRE47689E1, “Compounds for treating spinal muscular atrophy” (PTC Therapeutics, Inc., priority 2011, dated 2019)
Where two headings read alike, the source gives them in different places.

Key:
Smn protein = Smn protein assay in cultured cells (SMN HTRF); format: cell-based, human; settings: 48 hours; for maximum fold (Fold) increase of Smn protein: SMA patient fibroblast cells, 7-point concentration data, fold increase relative to vehicle control (SMN HTRF); for EC1.5x (concentration giving 1.5-fold Smn protein increase): SMA Type 1 patient fibroblast cells (GM03813), 7-point concentration curve, SMN HTRF, concentration producing 1.5 times Smn protein vs DMSO vehicle control, read-out: EC1.5x for Smn protein expression
In short: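 Smn in SMA fibroblast lysates, measured by anti-SMN HTRF after 48 h compound exposure; EC1.5x from fold change over vehicle.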

[1] = tested on: SMN2 minigene (full length SMN2 minigene mRNA containing SMN2 exon 7); assay: SMN2 minigene mRNA splicing RT-qPCR assay in cultured cells; format: cell-based, human; settings: Homo sapiens, HEK293-H, read-out: EC1.5x for production of full length SMN2 mRNA
In short: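 Full-length SMN2 minigene mRNA (exon 7 included), minigene-specific and not endogenous SMN, quantified by RT-qPCR multiplexed with GAPDH in stably transfected HEK293H cells after 24 h compound exposure at 37° C. Abundance from efficiency-corrected Ct, normalized to GAPDH and vehicle; EC1.5x reported as star bins.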

[2] = HEK293H cells stably transfected with SMN2-A minigene, 24 hours, 7-point concentration curve, 1.5-fold relative to vehicle-treated cells

Row | Compound | melting point | maximum fold (Fold) increase of Smn protein (Smn protein) | EC (1.5-fold) [1, 2] | EC1.5x (concentration giving 1.5-fold Smn protein increase) (Smn protein) | EC (1.5-fold) ([1]; 24 h)
1 | Cc1ccn2cc(-c3cc4ccc(N5CCN[C@H](C)C5)cc4oc3=O)nc2c1 [Compound 214, 3-(7-methylimidazo[1,2-a]pyridin-2-yl)-7-[(3R)-3-methylpiperazin-1-yl]-2H-chromen-2-one] | 222 °C | ** (fold increase between >1.2 and ≤1.35) | 0.3 to 1 µM |  | 
2 | Cn1c(-c2cc3ccc(N4CCN(C(=O)OCc5ccccc5)CC4)cc3oc2=O)nc2ccccc21 [Compound 43, benzyl 4-[3-(1-methyl-1H-benzimidazol-2-yl)-2-oxo-2H-chromen-7-yl]piperazine-1-carboxylate] | 253 to 254 °C | * (maximum fold increase of ≤1.2) | 3 to 30 µM |  | 
3 | Cc1cn2cc(-c3cc4ccc(N5CC[C@@H](CN(C)C)C5)cc4oc3=O)nc2c(C)n1 [Compound 967, 7-{(3S)-3-[(dimethylamino)methyl]pyrrolidin-1-yl}-3-(6,8-dimethylimidazo[1,2-a]pyrazin-2-yl)-2H-chromen-2-one] | 198 to 200 °C | **** (fold increase between >1.5 and ≤1.65) | < 0.1 µM | < 300 nM | 
4 | CC(=O)O.CC[C@H]1CN(c2ccc3cc(-c4cn5cc(C)nc(C)c5n4)c(=O)oc3c2)CCN1C [Compound 778, 3-(6,8-dimethylimidazo [1,2-a]pyrazin-2-yl)-7-[(3S)-3-ethyl-4-methylpiperazin-1-yl]-2H-chromen-2-one acetate] | 170 to 172 °C | ***** (fold increase >1.65) | < 0.1 µM | < 300 nM | 
5 | Cl.O=c1oc2cc(N3CCNCC3)ccc2cc1-c1nc2cccc(Cl)c2s1 [Compound 6, 3-(7-chloro-1,3-benzothiazol-2-yl)-7-(piperazin-1-yl)-2H-chromen-2-one hydrochloride] | 320 °C (dec.) | * (maximum fold increase of ≤1.2) | 1 to 3 µM |  | 
6 | O=c1oc2cc(N3CC4CCC(C3)N4)ccc2cc1-c1cn2cccc(Cl)c2n1 [Compound 526, 3-(8-chloroimidazo[1,2-a]pyridin-2-yl)-7-(3,8-diazabicyclo[3.2.1]oct-3-yl)-2H-chromen-2-one] | 213 to 216 °C | *** (fold increase between >1.35 and ≤1.5) |  |  | 0.1 to 0.3 µM
7 | Cc1ccc(-c2cc3ccc(N4CCN(C)CC4)cc3oc2=O)cn1 [Compound 164, 7-(4-methylpiperazin-1-yl)-3-(6-methylpyridin-3-yl)-2H-chromen-2-one] | 158 to 160 °C | * (maximum fold increase of ≤1.2) | 1 to 3 µM |  | 
8 | CCN1CCN(c2ccc3cc(-c4cc5cc(C)ccn5n4)c(=O)oc3c2)CC1 [Compound 307, 7-(4-ethylpiperazin-1-yl)-3-(5-methylpyrazolo[1,5-a]pyridin-2-yl)-2H-chromen-2-one] | 257 to 259 °C | *** (fold increase between >1.35 and ≤1.5) | 0.3 to 1 µM | 3000 to 10000 nM | 
9 | Cc1cn2cc(-c3cc4ccc(N5C[C@H]6CCN(C)[C@H]6C5)cc4oc3=O)cc2c(C)n1 [Compound 755, 3-(1,3-dimethylpyrrolo[1,2-a]pyrazin-7-yl)-7-[(3aR,6aR)-1-methylhexahydropyrrolo[3,4-b]pyrrol-5(1H)-yl]-2H-chromen-2-one] | 196 to 198 °C | *** (fold increase between >1.35 and ≤1.5) | < 0.1 µM |  | 
10 | Cc1cn2cc(-c3cc4ccc(N5CCN(CCO)CC5)cc4oc3=O)nc2cn1 [Compound 837, 7-[4-(2-hydroxyethyl)piperazin-1-yl]-3-(6-methylimidazo[1,2-a]pyrazin-2-yl)-2H-chromen-2-one] | 246 to 252 °C | ***** (fold increase >1.65) | < 0.1 µM | < 300 nM | 

Now from value to compound, other results behind:

Row | melting point | Compound | maximum fold (Fold) increase of Smn protein (Smn protein) | EC (1.5-fold) [1, 2] | EC1.5x (concentration giving 1.5-fold Smn protein increase) (Smn protein) | EC (1.5-fold) ([1]; 24 h)
11 | 182 to 185 °C | Cc1csc2nc(-c3cc4ccc(N5CCCN(C)CC5)cc4oc3=O)cn12 [Compound 179, 7-(4-methyl-1,4-diazepan-1-yl)-3-(3-methylimidazo[2,1-b][1,3]thiazol-6-yl)-2H-chromen-2-one] | *** (fold increase between >1.35 and ≤1.5) | 1 to 3 µM |  | 
12 | 175 to 177 °C | CCN1CCC(Oc2ccc3cc(-c4cn5cc(C)nc(C)c5n4)c(=O)oc3c2)CC1 [Compound 898, 3-(6,8-dimethylimidazo[1,2-a]pyrazin-2-yl)-7-[(1-ethylpiperidin-4-yl)oxy]-2H-chromen-2-one] | ***** (fold increase >1.65) | < 0.1 µM | < 300 nM | 
13 | 225 to 230 °C | COc1ccn2cc(-c3cc4ccc(N5C[C@@H](C)N[C@@H](C)C5)cc4oc3=O)nc2c1 [Compound 432, 7-[(3R,5S)-3,5-dimethylpiperazin-1-yl]-3-(7-methoxyimidazo[1,2-a]pyridin-2-yl)-2H-chromen-2-one] | ** (fold increase between >1.2 and ≤1.35) | 1 to 3 µM |  | 
14 | 101 to 103 °C | Cc1cccc(-c2cc3ccc(N4CCN[C@@H](C)C4)cc3oc2=O)c1 [Compound 512, 3-(3-methylphenyl)-7-[(3S)-3-methylpiperazin-1-yl]-2H-chromen-2-one] | * (maximum fold increase of ≤1.2) | 1 to 3 µM |  | 
15 | 291 °C (dec.) | CN1CCN(c2ccc3cc(-c4cn5cc(C#N)ccc5n4)c(=O)oc3c2)CC1 [Compound 208, 2-[7-(4-methylpiperazin-1-yl)-2-oxo-2H-chromen-3-yl]imidazo[1,2-a]pyridine-6-carbonitrile] | * (maximum fold increase of ≤1.2) | 1 to 3 µM |  | 
16 | 212 to 215 °C | Cc1cn2cc(-c3cc4ccc(N5CCN(CCO)CC5)cc4oc3=O)cc2cn1 [Compound 684, 7-[4-(2-hydroxyethyl)piperazin-1-yl]-3-(3-methylpyrrolo[1,2-a]pyrazin-7-yl)-2H-chromen-2-one] | **** (fold increase between >1.5 and ≤1.65) | < 0.1 µM | < 300 nM | 
17 | 188 to 190 °C | Cc1cn2cc(-c3cc4ccc(C5=CC(C)(C)NC(C)(C)C5)cc4oc3=O)nc2c(C)n1 [Compound 949, 3-(6,8-dimethylimidazo[1,2-a]pyrazin-2-yl)-7-(2,2,6,6-tetramethyl-1,2,3,6-tetrahydropyridin-4-yl)-2H-chromen-2-one] | ***** (fold increase >1.65) | < 0.1 µM | < 300 nM | 
18 | 260 to 270 °C | Cc1cn2cc(-c3cc4ccc(C5CCN(CC(C)C)CC5)cc4oc3=O)nc2cn1 [Compound 916, 3-(6-methylimidazo[1,2-a]pyrazin-2-yl)-7-[1-(2-methylpropyl)piperidin-4-yl]-2H-chromen-2-one] | **** (fold increase between >1.5 and ≤1.65) | 0.1 to 0.3 µM | 300 to 1000 nM | 
